Experiments:
Experiment in all cases: Competitive isoTOP-ABPP, cell lysates
Type in all cases: binding
MGMT C150 (P16455) = molecular target: T1, MGMT C150 (P16455) (Homo sapiens, UniProt P16455); details: for isoTOP-ABPP ratio (reactivity profile), P16455_C150: 500 μm in-vitro ramos; for isoTOP-ABPP reactivity ratio, P16455_C150: 500 μm, in-vitro_ramos
T1 sequence (P16455 1-207): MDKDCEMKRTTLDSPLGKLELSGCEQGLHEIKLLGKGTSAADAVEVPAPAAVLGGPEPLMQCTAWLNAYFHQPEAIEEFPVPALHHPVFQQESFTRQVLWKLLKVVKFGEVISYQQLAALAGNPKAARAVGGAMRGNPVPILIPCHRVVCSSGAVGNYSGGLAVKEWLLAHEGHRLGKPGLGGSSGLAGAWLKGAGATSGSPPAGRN

SAMHD1 C522 (Q9Y3Z3) = SAMHD1 C522 (Q9Y3Z3) (Homo sapiens, UniProt Q9Y3Z3); details: for isoTOP-ABPP reactivity ratio, Q9Y3Z3_C522: 500 μm
PRMT1 C109 (Q99873) = PRMT1 C109 (Q99873) (Homo sapiens, UniProt Q99873); details: for isoTOP-ABPP reactivity ratio, Q99873_C109: 500 μm
GNB2L1 C182 (P63244) = GNB2L1 C182 (P63244) (Homo sapiens, UniProt P63244); details: for isoTOP-ABPP reactivity ratio, P63244_C182: 500 μm
STAT3 C259 (P40763) = STAT3 C259 (P40763) (Homo sapiens, UniProt P40763); details: for isoTOP-ABPP reactivity ratio, P40763_C259: 500 μm, in-vitro_ramos_231
DCUN1D1 C115 (Q96GG9) = DCUN1D1 C115 (Q96GG9) (Homo sapiens, UniProt Q96GG9)
UCHL3 C95 (P15374) = molecular target: T2, UCHL3 C95 (P15374) (Homo sapiens, UniProt P15374); details: for isoTOP-ABPP reactivity ratio, P15374_C95: 500 μm
T2 sequence (P15374 1-230): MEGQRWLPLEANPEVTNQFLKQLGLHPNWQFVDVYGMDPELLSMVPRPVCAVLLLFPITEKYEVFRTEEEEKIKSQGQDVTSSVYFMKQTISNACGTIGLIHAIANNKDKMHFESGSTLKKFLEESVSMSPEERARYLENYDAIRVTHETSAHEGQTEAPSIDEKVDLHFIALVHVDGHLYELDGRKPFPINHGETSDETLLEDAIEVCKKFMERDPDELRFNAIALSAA

UBE2L3 C86 (P68036) = UBE2L3 C86 (P68036) (Homo sapiens, UniProt P68036); details: for isoTOP-ABPP reactivity ratio, P68036_C86: 500 μm
ZNF217 C286 (O75362) = ZNF217 C286 (O75362) (Homo sapiens, UniProt O75362)
PCK2 C306 (Q16822) = molecular target: T3, PCK2 C306 (Q16822) (Homo sapiens, UniProt Q16822); details: for isoTOP-ABPP reactivity ratio, Q16822_C306: 500 μm
T3 sequence (Q16822 33-640): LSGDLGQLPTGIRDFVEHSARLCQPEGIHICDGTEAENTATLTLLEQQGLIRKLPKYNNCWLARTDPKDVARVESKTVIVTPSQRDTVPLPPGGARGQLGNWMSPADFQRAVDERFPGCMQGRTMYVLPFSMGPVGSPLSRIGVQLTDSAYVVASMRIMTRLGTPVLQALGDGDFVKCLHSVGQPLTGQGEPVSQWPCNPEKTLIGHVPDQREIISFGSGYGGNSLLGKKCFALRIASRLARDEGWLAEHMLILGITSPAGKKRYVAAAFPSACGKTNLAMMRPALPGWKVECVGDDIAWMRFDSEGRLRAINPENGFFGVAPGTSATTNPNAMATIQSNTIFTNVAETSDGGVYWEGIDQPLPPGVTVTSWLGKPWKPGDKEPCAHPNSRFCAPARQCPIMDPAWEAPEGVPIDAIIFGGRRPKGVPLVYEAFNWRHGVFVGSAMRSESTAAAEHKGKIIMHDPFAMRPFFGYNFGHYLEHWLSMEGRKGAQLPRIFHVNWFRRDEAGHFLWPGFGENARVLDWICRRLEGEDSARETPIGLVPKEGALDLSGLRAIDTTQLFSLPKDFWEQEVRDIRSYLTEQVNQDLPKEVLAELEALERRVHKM

Row | isoTOP-ABPP ratio (reactivity profile), P16455_C150 (MGMT C150 (P16455)) | isoTOP-ABPP ratio (reactivity profile), Q9Y3Z3_C522 (SAMHD1 C522 (Q9Y3Z3); 500 μm in-vitro ramos) | isoTOP-ABPP ratio (reactivity profile), Q99873_C109 (PRMT1 C109 (Q99873); 500 μm in-vitro ramos) | isoTOP-ABPP ratio (reactivity profile), Q96GG9_C115 (DCUN1D1 C115 (Q96GG9); 500 μm in-vitro ramos) | isoTOP-ABPP ratio (reactivity profile), P15374_C95 (UCHL3 C95 (P15374); 500 μm in-vitro ramos) | isoTOP-ABPP reactivity ratio, P16455_C150 (MGMT C150 (P16455)) | isoTOP-ABPP reactivity ratio, Q99873_C109 (PRMT1 C109 (Q99873); in-vitro_ramos) | isoTOP-ABPP reactivity ratio, Q99873_C109 (PRMT1 C109 (Q99873); in-vitro_ramos_231) | isoTOP-ABPP reactivity ratio, P40763_C259 (STAT3 C259 (P40763)) | isoTOP-ABPP reactivity ratio, P15374_C95 (UCHL3 C95 (P15374); in-vitro_ramos) | isoTOP-ABPP reactivity ratio, P15374_C95 (UCHL3 C95 (P15374); in-vitro_ramos_231) | isoTOP-ABPP reactivity ratio, P68036_C86 (UBE2L3 C86 (P68036); in-vitro_ramos) | isoTOP-ABPP reactivity ratio, P68036_C86 (UBE2L3 C86 (P68036); in-vitro_ramos_231) | isoTOP-ABPP reactivity ratio, Q16822_C306 (PCK2 C306 (Q16822); in-vitro_ramos_231) | isoTOP-ABPP ratio (reactivity profile), P63244_C182 (GNB2L1 C182 (P63244); 500 μm in-vitro ramos) | isoTOP-ABPP ratio (reactivity profile), P40763_C259 (STAT3 C259 (P40763); 500 μm in-vitro ramos) | Structure (SMILES) | isoTOP-ABPP ratio (reactivity profile), Q99873_C109 (PRMT1 C109 (Q99873); 500 μm in-vitro ramos_231) | isoTOP-ABPP ratio (reactivity profile), P63244_C182 (GNB2L1 C182 (P63244); 500 μm in-vitro ramos_231) | isoTOP-ABPP ratio (reactivity profile), P40763_C259 (STAT3 C259 (P40763); 500 μm in-vitro ramos_231) | isoTOP-ABPP ratio (reactivity profile), P68036_C86 (UBE2L3 C86 (P68036); 500 μm in-vitro ramos) | further results
1 |  |  |  |  |  | 0.9 | 0.9 | 0.9 | 0.9 | 0.8 | 1.0 | 7.9 | 9.8 | 1.2 |  |  | Cc1ccc(C=C(C#N)C(=O)NCCN2CCOCC2)cc1 [compound 41] |  |  |  |  | isoTOP-ABPP reactivity ratio, O75362_C286 (ZNF217 C286 (O75362); 500 μm, in-vitro_ramos): 0.6; isoTOP-ABPP reactivity ratio, Q9Y3Z3_C522 (SAMHD1 C522 (Q9Y3Z3); in-vitro_ramos_231): 0.9; isoTOP-ABPP reactivity ratio, P63244_C182 (GNB2L1 C182 (P63244); in-vitro_ramos): 4.7; isoTOP-ABPP reactivity ratio, Q16822_C306 (PCK2 C306 (Q16822); in-vitro_ramos): 1.0
2 |  |  |  |  |  | 20.0 | 1.8 | 1.7 | 10.2 | 1.0 | 1.2 | 0.9 | 1.1 | 3.2 |  |  | CC(C)(C)c1cc(NC(=O)CCl)on1 [compound 32] |  |  |  |  | isoTOP-ABPP reactivity ratio, Q9Y3Z3_C522 (SAMHD1 C522 (Q9Y3Z3); in-vitro_ramos): 1.8; isoTOP-ABPP reactivity ratio, P63244_C182 (GNB2L1 C182 (P63244); in-vitro_ramos_231): 1.9; isoTOP-ABPP reactivity ratio, Q96GG9_C115 (DCUN1D1 C115 (Q96GG9); 500 μm, in-vitro_ramos): 0.9
3 | 1.7 |  | 1.1 |  | 0.9 |  |  |  |  |  |  |  |  |  | 1.1 | 1.1 | COc1ccccc1OCCNC(=O)CCl [compound 28] | 0.8 | 1.0 | 1.0 |  | isoTOP-ABPP ratio (reactivity profile), O75362_C286 (ZNF217 C286 (O75362); 500 μm in-vitro ramos): 1.0; isoTOP-ABPP ratio (reactivity profile), O75362_C286 (ZNF217 C286 (O75362); 500 μm in-vitro ramos_231): 1.0; isoTOP-ABPP ratio (reactivity profile), Q9Y3Z3_C522 (SAMHD1 C522 (Q9Y3Z3); 500 μm in-vitro ramos_231): 1.0; isoTOP-ABPP ratio (reactivity profile), P15374_C95 (UCHL3 C95 (P15374); 500 μm in-vitro ramos_231): 1.1; isoTOP-ABPP ratio (reactivity profile), P68036_C86 (UBE2L3 C86 (P68036); 500 μm in-vitro ramos_231): 1.4; isoTOP-ABPP ratio (reactivity profile), Q16822_C306 (PCK2 C306 (Q16822); 500 μm in-vitro ramos_231): 1.1
4 | 1.9 | 1.6 | 1.2 | 0.8 | 0.7 |  |  |  |  |  |  |  |  |  | 1.3 | 1.9 | C=CC(=O)N(Cc1cccnc1)c1ccc(Oc2ccccc2)c(C(F)(F)F)c1 [compound 15] |  |  |  | 1.3 | isoTOP-ABPP ratio, Q99873_C109 (PRMT1 C109 (Q99873); 500 μM, invitro, 231): 0.9
5 | 4.0 | 1.1 | 1.0 | 1.7 | 1.1 |  |  |  |  |  |  |  |  |  | 2.6 | 1.7 | CC(Br)C(=O)Nc1cc(C(F)(F)F)cc(C(F)(F)F)c1 (centres unmarked) [compound 24] |  |  |  |  | 

Row | Structure (SMILES) | isoTOP-ABPP ratio (reactivity profile), P16455_C150 (MGMT C150 (P16455)) | isoTOP-ABPP ratio (reactivity profile), Q9Y3Z3_C522 (SAMHD1 C522 (Q9Y3Z3); 500 μm in-vitro ramos) | isoTOP-ABPP ratio (reactivity profile), Q99873_C109 (PRMT1 C109 (Q99873); 500 μm in-vitro ramos) | isoTOP-ABPP ratio (reactivity profile), Q96GG9_C115 (DCUN1D1 C115 (Q96GG9); 500 μm in-vitro ramos) | isoTOP-ABPP ratio (reactivity profile), P15374_C95 (UCHL3 C95 (P15374); 500 μm in-vitro ramos) | isoTOP-ABPP reactivity ratio, P16455_C150 (MGMT C150 (P16455)) | isoTOP-ABPP reactivity ratio, Q99873_C109 (PRMT1 C109 (Q99873); in-vitro_ramos) | isoTOP-ABPP reactivity ratio, Q99873_C109 (PRMT1 C109 (Q99873); in-vitro_ramos_231) | isoTOP-ABPP reactivity ratio, P40763_C259 (STAT3 C259 (P40763)) | isoTOP-ABPP reactivity ratio, P15374_C95 (UCHL3 C95 (P15374); in-vitro_ramos) | isoTOP-ABPP reactivity ratio, P15374_C95 (UCHL3 C95 (P15374); in-vitro_ramos_231) | isoTOP-ABPP reactivity ratio, P68036_C86 (UBE2L3 C86 (P68036); in-vitro_ramos) | isoTOP-ABPP reactivity ratio, P68036_C86 (UBE2L3 C86 (P68036); in-vitro_ramos_231) | isoTOP-ABPP reactivity ratio, Q16822_C306 (PCK2 C306 (Q16822); in-vitro_ramos_231) | isoTOP-ABPP ratio (reactivity profile), P63244_C182 (GNB2L1 C182 (P63244); 500 μm in-vitro ramos) | isoTOP-ABPP ratio (reactivity profile), P40763_C259 (STAT3 C259 (P40763); 500 μm in-vitro ramos) | isoTOP-ABPP ratio (reactivity profile), Q99873_C109 (PRMT1 C109 (Q99873); 500 μm in-vitro ramos_231) | isoTOP-ABPP ratio (reactivity profile), P63244_C182 (GNB2L1 C182 (P63244); 500 μm in-vitro ramos_231) | isoTOP-ABPP ratio (reactivity profile), P40763_C259 (STAT3 C259 (P40763); 500 μm in-vitro ramos_231) | isoTOP-ABPP ratio (reactivity profile), P68036_C86 (UBE2L3 C86 (P68036); 500 μm in-vitro ramos) | further results
6 | O=C(CCl)N1CCOCC1 [compound 22] | 2.9 | 0.8 | 1.0 | 0.8 | 0.7 |  |  |  |  |  |  |  |  |  |  |  | 1.0 | 1.6 | 2.0 | 0.8 | isoTOP-ABPP ratio (reactivity profile), Q96GG9_C115 (DCUN1D1 C115 (Q96GG9); 500 μm in-vitro ramos_231): 1.0
